“Also recorded” adds a separate entry of the source.
System: patients with advanced solid tumors harboring FGFR1–3 gene alterations
Assay: Phase I dose-escalation: safety/tolerability
Assay type: in vivo, human
Details: for Any TEAE / Any TEAE leading to discontinuation / Any TEAE leading to dose reduction / Any TEAE leading to treatment interruption / Serious TEAE / TEAE: ALT increased / TEAE: AST increased / TEAE: Abdominal pain / TEAE: Alopecia / TEAE: Anemia / TEAE: Back pain / TEAE: Blurred vision / TEAE: Constipation / TEAE: Creatinine increased (in blood) / TEAE: Decreased appetite / TEAE: Diarrhea / TEAE: Dry eye / TEAE: Dry mouth / TEAE: Dry skin / TEAE: Dysgeusia / TEAE: Dyspnea / TEAE: Edema peripheral / TEAE: Fatigue / TEAE: Hyperphosphatemia / TEAE: Hypertension / TEAE: Hypokalemia / TEAE: Hypomagnesemia / TEAE: Mucosal inflammation / TEAE: Myalgia / TEAE: Nail changes / TEAE: Nausea / TEAE: Stomatitis / TEAE: Vomiting: all grades

Debio 1347
DLT observed (60 mg): grade-2 dry mouth and eyes
Any TEAE (60 mg (n=10)): 10 (100) Number (%) of patients
Any TEAE leading to discontinuation (60 mg (n=10)): 1 (10) Number (%) of patients
Any TEAE leading to dose reduction (60 mg (n=10)): 2 (20) Number (%) of patients
Any TEAE leading to treatment interruption (60 mg (n=10)): 6 (60) Number (%) of patients
Serious TEAE (60 mg (n=10)): 2 (20) Number (%) of patients
TEAE: ALT increased (60 mg (n=10)): 1 (10) Number (%) of patients
TEAE: AST increased (60 mg (n=10)): 2 (20) Number (%) of patients
TEAE: Abdominal pain (60 mg (n=10)): 3 (30) Number (%) of patients
TEAE: Alopecia (60 mg (n=10)): 1 (10) Number (%) of patients
TEAE: Anemia (60 mg (n=10)): 4 (40) Number (%) of patients
TEAE: Back pain (60 mg (n=10)): 0 Number (%) of patients
TEAE: Blurred vision (60 mg (n=10)): 1 (10) Number (%) of patients
TEAE: Constipation (60 mg (n=10)): 2 (20) Number (%) of patients
TEAE: Creatinine increased (in blood) (60 mg (n=10)): 2 (20) Number (%) of patients
TEAE: Decreased appetite (60 mg (n=10)): 3 (30) Number (%) of patients
TEAE: Diarrhea (60 mg (n=10)): 7 (70) Number (%) of patients
TEAE: Dry eye (60 mg (n=10)): 2 (20) Number (%) of patients
TEAE: Dry mouth (60 mg (n=10)): 4 (40) Number (%) of patients
TEAE: Dry skin (60 mg (n=10)): 0 Number (%) of patients
TEAE: Dysgeusia (60 mg (n=10)): 1 (10) Number (%) of patients
TEAE: Dyspnea (60 mg (n=10)): 3 (30) Number (%) of patients
TEAE: Edema peripheral (60 mg (n=10)): 1 (10) Number (%) of patients
TEAE: Fatigue (60 mg (n=10)): 5 (50) Number (%) of patients
TEAE: Hyperphosphatemia (60 mg (n=10)): 9 (90) Number (%) of patients
TEAE: Hypertension (60 mg (n=10)): 1 (10) Number (%) of patients
TEAE: Hypokalemia (60 mg (n=10)): 0 Number (%) of patients
TEAE: Hypomagnesemia (60 mg (n=10)): 2 (20) Number (%) of patients
TEAE: Mucosal inflammation (60 mg (n=10)): 1 (10) Number (%) of patients
TEAE: Myalgia (60 mg (n=10)): 1 (10) Number (%) of patients
TEAE: Nail changes (60 mg (n=10)): 2 (20) Number (%) of patients
TEAE: Nausea (60 mg (n=10)): 3 (30) Number (%) of patients
TEAE: Stomatitis (60 mg (n=10)): 1 (10) Number (%) of patients
TEAE: Vomiting (60 mg (n=10)): 2 (20) Number (%) of patients
DLT observed (80 mg): hyperamylasemia; also recorded: grade-3 asymptomatic hypercalcemia
Any TEAE (80 mg (n=10)): 10(100%) Number (%) of patients
Any TEAE leading to discontinuation (80 mg (n=10)): 3 (30) Number (%) of patients
Any TEAE leading to dose reduction (80 mg (n=10)): 2 (20) Number (%) of patients
Any TEAE leading to treatment interruption (80 mg (n=10)): 5 (50) Number (%) of patients
Serious TEAE (80 mg (n=10)): 3 (30) Number (%) of patients
TEAE: ALT increased (80 mg (n=10)): 1 (10) Number (%) of patients
TEAE: AST increased (80 mg (n=10)): 1 (10) Number (%) of patients
TEAE: Abdominal pain (80 mg (n=10)): 3 (30) Number (%) of patients
TEAE: Alopecia (80 mg (n=10)): 1 (10) Number (%) of patients
TEAE: Anemia (80 mg (n=10)): 2 (20) Number (%) of patients
TEAE: Back pain (80 mg (n=10)): 0 Number (%) of patients
TEAE: Blurred vision (80 mg (n=10)): 2 (20) Number (%) of patients
TEAE: Constipation (80 mg (n=10)): 3 (30) Number (%) of patients
TEAE: Creatinine increased (in blood) (80 mg (n=10)): 2 (20) Number (%) of patients
TEAE: Decreased appetite (80 mg (n=10)): 5 (50) Number (%) of patients
TEAE: Diarrhea (80 mg (n=10)): 5 (50) Number (%) of patients
TEAE: Dry eye (80 mg (n=10)): 0 Number (%) of patients
TEAE: Dry mouth (80 mg (n=10)): 5 (50) Number (%) of patients
TEAE: Dry skin (80 mg (n=10)): 2 (20) Number (%) of patients
TEAE: Dysgeusia (80 mg (n=10)): 2 (20) Number (%) of patients
TEAE: Dyspnea (80 mg (n=10)): 1 (10) Number (%) of patients
TEAE: Edema peripheral (80 mg (n=10)): 2 (20) Number (%) of patients
TEAE: Fatigue (80 mg (n=10)): 5 (50) Number (%) of patients
TEAE: Hyperphosphatemia (80 mg (n=10)): 9 (90) Number (%) of patients
TEAE: Hypertension (80 mg (n=10)): 0 Number (%) of patients
TEAE: Hypokalemia (80 mg (n=10)): 2 (20) Number (%) of patients
TEAE: Hypomagnesemia (80 mg (n=10)): 1 (10) Number (%) of patients
TEAE: Mucosal inflammation (80 mg (n=10)): 3 (30) Number (%) of patients
TEAE: Myalgia (80 mg (n=10)): 3 (30) Number (%) of patients
TEAE: Nail changes (80 mg (n=10)): 3 (30) Number (%) of patients
TEAE: Nausea (80 mg (n=10)): 3 (30) Number (%) of patients
TEAE: Stomatitis (80 mg (n=10)): 3 (30) Number (%) of patients
TEAE: Vomiting (80 mg (n=10)): 1 (10) Number (%) of patients
DLT observed (110 mg): stomatitis; also recorded: grade-3 bilirubin increase and hyper-phosphatemia
Any TEAE (110 mg (n=9)): 9 (100%) Number (%) of patients
Any TEAE leading to discontinuation (110 mg (n=9)): 1 (11) Number (%) of patients
Any TEAE leading to dose reduction (110 mg (n=9)): 7 (78) Number (%) of patients
Any TEAE leading to treatment interruption (110 mg (n=9)): 8 (89) Number (%) of patients
Serious TEAE (110 mg (n=9)): 4 (44) Number (%) of patients
TEAE: ALT increased (110 mg (n=9)): 1 (11) Number (%) of patients
TEAE: AST increased (110 mg (n=9)): 1 (11) Number (%) of patients
TEAE: Abdominal pain (110 mg (n=9)): 2 (22) Number (%) of patients
TEAE: Alopecia (110 mg (n=9)): 4 (44) Number (%) of patients
TEAE: Anemia (110 mg (n=9)): 3 (33) Number (%) of patients
TEAE: Back pain (110 mg (n=9)): 1 (11) Number (%) of patients
TEAE: Blurred vision (110 mg (n=9)): 2 (22) Number (%) of patients
TEAE: Constipation (110 mg (n=9)): 3 (33) Number (%) of patients
TEAE: Creatinine increased (in blood) (110 mg (n=9)): 0 Number (%) of patients
TEAE: Decreased appetite (110 mg (n=9)): 3 (33) Number (%) of patients
TEAE: Diarrhea (110 mg (n=9)): 3 (33) Number (%) of patients
TEAE: Dry eye (110 mg (n=9)): 4 (44) Number (%) of patients
TEAE: Dry mouth (110 mg (n=9)): 4 (44) Number (%) of patients
TEAE: Dry skin (110 mg (n=9)): 5 (55) Number (%) of patients
TEAE: Dysgeusia (110 mg (n=9)): 4 (44) Number (%) of patients
TEAE: Dyspnea (110 mg (n=9)): 3 (33) Number (%) of patients
TEAE: Edema peripheral (110 mg (n=9)): 2 (22) Number (%) of patients
TEAE: Fatigue (110 mg (n=9)): 5 (55) Number (%) of patients
TEAE: Hyperphosphatemia (110 mg (n=9)): 9 (100) Number (%) of patients
TEAE: Hypertension (110 mg (n=9)): 0 Number (%) of patients
TEAE: Hypokalemia (110 mg (n=9)): 1 (11) Number (%) of patients
TEAE: Hypomagnesemia (110 mg (n=9)): 0 Number (%) of patients
TEAE: Mucosal inflammation (110 mg (n=9)): 2 (22) Number (%) of patients
TEAE: Myalgia (110 mg (n=9)): 3 (33) Number (%) of patients
TEAE: Nausea (110 mg (n=9)): 6 (67) Number (%) of patients
TEAE: Stomatitis (110 mg (n=9)): 7 (78) Number (%) of patients
TEAE: Vomiting (110 mg (n=9)): 3 (33) Number (%) of patients
Any TEAE (150 mg (n=3)): 3 (100%) Number (%) of patients
Any TEAE leading to discontinuation (150 mg (n=3)): 0 (0) Number (%) of patients
Any TEAE leading to treatment interruption (150 mg (n=3)): 3 (100) Number (%) of patients
Serious TEAE (150 mg (n=3)): 2 (67) Number (%) of patients
TEAE: ALT increased (150 mg (n=3)): 0 Number (%) of patients
TEAE: AST increased (150 mg (n=3)): 0 Number (%) of patients
TEAE: Abdominal pain (150 mg (n=3)): 1 (33) Number (%) of patients
TEAE: Alopecia (150 mg (n=3)): 2 (67) Number (%) of patients
TEAE: Anemia (150 mg (n=3)): 0 Number (%) of patients

— PMC9014845 (Clinical cancer research : an official journal of the …, 2019)
